Data on 9 molecules can be found in US20260069725A1, “LIGAND COMPOUND TARGETING PSMA ANTIGEN, AND CHELATE AND USE THEREOF IN DIAGNOSIS AND TREATMENT OF PROSTATE CANCER” (Chengdu StarRay Therapeutics Co., Ltd, priority 2021, published 2026).

In one data set the test system is LNCaP tumor bearing mice. The data set is described as follows: SPECT/CT scanning, exposure of 177Lu labeled compounds in tumor and tissues. In kind it is in vivo. Particulars: labeled with 177Lu; about 7.4 MBq (200 μCi) tail vein; scans 1-72 h. As to the method:
The ^177Lu labeled precursor compound was diluted to 7.4 MBq (200 μCi)/200 […] with normal saline, and each tumor bearing mouse was given about 7.4 MBq (200 μCi) of the drug via tail vein injection. SPECT/CT scanning was performed on the mice at 1, 4, 8, 24, 48 and 72 h after administration, respectively, with the mice under continuous anesthesia with isoflurane, lying prone on an examination bed. The acquisition method was static imaging 12 min SPECT, and medium resolution whole-body imaging CT. During the process, according to the recording table, the animal body weight, injection dose, injection time and residual dose were recorded, and the time of measuring the injection dose and the time of measuring the residual dose were recorded respectively. After scanning, the data were reconstructed, PMOD software was used to analyze and delineate each organ tissue and quantify the drug distribution therein, the images and data were saved, and the data were further subjected to statistical analysis.
Drug exposure in each tissue was calculated (Table 1, where the values involving PSMA-D were the predicted values).
With `COc1ccc(C(=O)N[C@@H](CCCCNC(=O)CN2CCN(CC(=O)O)CCN(CC(=O)O)CCN(CC(=O)O)CC2)C(=O)NCC2CCC(C(=O)N[C@@H](Cc3ccc4ccccc4c3)C(=O)NCCCC[C@H](NC(=O)N[C@@H](CCC(=O)O)C(=O)O)C(=O)O)CC2)cc1` (stereo partly drawn) [PSMA-I], the “Exposure in Bladder” value turned out to be 831.9 h*ID %/g, the “Exposure in Bone” value is given as 50.24 h*ID %/g, the “Exposure in Heart” value amounted to 23.61 h*ID %/g and the “Exposure in Kidney” value was 776.8 h*ID %/g. In addition, the “Exposure in Liver” value is listed as 55.24 h*ID %/g, the “Exposure in Lung” value came out at 31.12 h*ID %/g, the “Exposure in Muscle” value amounted to 62.66 h*ID %/g and the “Exposure in Spleen” value came to 65.02 h*ID %/g. In addition, the “Exposure in Tumor” value amounted to 95.56 h*ID %/g.
As to `COc1ccc(CCCC(=O)NC(CCC(N)=O)C(=O)N[C@@H](CCCCNC(=O)CN2CCN(CC(=O)O)CCN(CC(=O)O)CCN(CC(=O)O)CC2)C(=O)NCC2CCC(C(=O)N[C@@H](Cc3ccc4ccccc4c3)C(=O)NCCCC[C@H](NC(=O)N[C@@H](CCC(=O)O)C(=O)O)C(=O)O)CC2)cc1` (stereo partly drawn) [PSMA-E], the “Exposure in Bladder” value is 710.2 h*ID %/g, the “Exposure in Bone” value is 51.75 h*ID %/g, the “Exposure in Heart” value is given as 19.52 h*ID %/g and the “Exposure in Kidney” value is 239 h*ID %/g. Further, the “Exposure in Liver” value was 31.19 h*ID %/g, the “Exposure in Lung” value is 14.87 h*ID %/g, the “Exposure in Muscle” value is recorded as 25.53 h*ID %/g and the “Exposure in Spleen” value amounted to 46.74 h*ID %/g. Besides, the “Exposure in Tumor” value is 473.6 h*ID %/g.
Turning to `COc1ccc(CCCC(=O)NC(CCCCN)C(=O)N[C@@H](CCCCNC(=O)CN2CCN(CC(=O)O)CCN(CC(=O)O)CCN(CC(=O)O)CC2)C(=O)NCC2CCC(C(=O)N[C@@H](Cc3ccc4ccccc4c3)C(=O)NCCCC[C@H](NC(=O)N[C@@H](CCC(=O)O)C(=O)O)C(=O)O)CC2)cc1` (stereo partly drawn) [PSMA-C], the “Exposure in Bladder” value was found to be 100.8 h*ID %/g, the “Exposure in Bone” value is recorded as 32.01 h*ID %/g, the “Exposure in Heart” value is listed as 38.58 h*ID %/g and the “Exposure in Kidney” value is recorded as 178.7 h*ID %/g. Besides, the “Exposure in Liver” value came out at 49.61 h*ID %/g, the “Exposure in Lung” value was found to be 31.55 h*ID %/g, the “Exposure in Muscle” value came to 17.82 h*ID %/g and the “Exposure in Spleen” value worked out at 29.2 h*ID %/g. In addition, the “Exposure in Tumor” value was found to be 131.9 h*ID %/g.
On to `O=C(O)CC[C@H](NC(=O)N[C@@H](CCCCNC(=O)[C@H](Cc1ccc2ccccc2c1)NC(=O)[C@H]1CC[C@H](CNC(=O)CN2CCN(CC(=O)O)CCN(CC(=O)O)CCN(CC(=O)O)CC2)CC1)C(=O)O)C(=O)O` [PSMA-617, reference compound], for which the “Exposure in Bladder” value came to 553.2 h*ID %/g, the “Exposure in Bone” value was determined as 9.939 h*ID %/g, the “Exposure in Heart” value is 23.31 h*ID %/g and the “Exposure in Kidney” value was found to be 77.45 h*ID %/g. The “Exposure in Liver” value is reported as 48.92 h*ID %/g, the “Exposure in Lung” value is given as 40.93 h*ID %/g, the “Exposure in Muscle” value was found to be 36.36 h*ID %/g and the “Exposure in Spleen” value is on record as 54.27 h*ID %/g. The “Exposure in Tumor” value came to 346.9 h*ID %/g.
For `COc1ccc(C(=O)NCCN2CCN(C(=O)CCC(=O)N[C@@H](CCCCNC(=O)CN3CCN(CC(=O)O)CCN(CC(=O)O)CCN(CC(=O)O)CC3)C(=O)NCC3CCC(C(=O)N[C@@H](Cc4ccc5ccccc5c4)C(=O)NCCCC[C@H](NC(=O)N[C@@H](CCC(=O)O)C(=O)O)C(=O)O)CC3)CC2)cc1` (stereo partly drawn) [PSMA-K], the “Exposure in Bladder” value is 585.9 h*ID %/g, the “Exposure in Bone” value came out at 32.71 h*ID %/g, the “Exposure in Heart” value was 54.52 h*ID %/g and the “Exposure in Kidney” value was determined as 79.78 h*ID %/g. In addition, the “Exposure in Liver” value stood at 314.2 h*ID %/g, the “Exposure in Lung” value was determined as 278.5 h*ID %/g, the “Exposure in Muscle” value is on record as 26.77 h*ID %/g and the “Exposure in Spleen” value is 83.81 h*ID %/g. Also, the “Exposure in Tumor” value worked out at 281 h*ID %/g.
`O=C(O)CCCCCCCCCCCCC(=O)N[C@@H](CCCCNC(=O)CN1CCN(CC(=O)O)CCN(CC(=O)O)CCN(CC(=O)O)CC1)C(=O)NCC1CCC(C(=O)N[C@@H](Cc2ccc3ccccc3c2)C(=O)NCCCC[C@H](NC(=O)N[C@@H](CCC(=O)O)C(=O)O)C(=O)O)CC1` (stereo partly drawn) [PSMA-G]: the “Exposure in Bladder” value was determined as 935.9 h*ID %/g, the “Exposure in Bone” value worked out at 54.86 h*ID %/g, the “Exposure in Heart” value amounted to 123.9 h*ID %/g and the “Exposure in Kidney” value was 1589 h*ID %/g. The “Exposure in Liver” value came out at 193.2 h*ID %/g, the “Exposure in Lung” value is 86.51 h*ID %/g, the “Exposure in Muscle” value came out at 71.89 h*ID %/g and the “Exposure in Spleen” value is given as 83.39 h*ID %/g. The “Exposure in Tumor” value was determined as 226.4 h*ID %/g.
Take `O=C(O)CCCCCCCCCCC(=O)N[C@@H](CCCCNC(=O)CN1CCN(CC(=O)O)CCN(CC(=O)O)CCN(CC(=O)O)CC1)C(=O)NCC1CCC(C(=O)N[C@@H](Cc2ccc3ccccc3c2)C(=O)NCCCC[C@H](NC(=O)N[C@@H](CCC(=O)O)C(=O)O)C(=O)O)CC1` (stereo partly drawn) [PSMA-H]: the “Exposure in Bladder” value was 1135 h*ID %/g, the “Exposure in Bone” value amounted to 22.69 h*ID %/g, the “Exposure in Heart” value was 63.71 h*ID %/g and the “Exposure in Kidney” value is reported as 575 h*ID %/g. Besides, the “Exposure in Liver” value stood at 72.88 h*ID %/g, the “Exposure in Lung” value is reported as 56.76 h*ID %/g, the “Exposure in Muscle” value stood at 35.74 h*ID %/g and the “Exposure in Spleen” value is listed as 62.06 h*ID %/g. Moreover, the “Exposure in Tumor” value came to 441.2 h*ID %/g.
On to `COc1ccc(CCCC(=O)NC(CCCNC(=N)N)C(=O)N[C@@H](CCCCNC(=O)CN2CCN(CC(=O)O)CCN(CC(=O)O)CCN(CC(=O)O)CC2)C(=O)NCC2CCC(C(=O)N[C@@H](Cc3ccc4ccccc4c3)C(=O)NCCCC[C@H](NC(=O)N[C@@H](CCC(=O)O)C(=O)O)C(=O)O)CC2)cc1` (stereo partly drawn) [PSMA-A], for which the “Exposure in Bladder” value amounted to 310.2 h*ID %/g, the “Exposure in Bone” value is 40.07 h*ID %/g, the “Exposure in Heart” value was found to be 50.46 h*ID %/g and the “Exposure in Kidney” value came to 206 h*ID %/g. For the same molecule, the “Exposure in Liver” value is listed as 101.6 h*ID %/g, the “Exposure in Lung” value came to 35.49 h*ID %/g, the “Exposure in Muscle” value amounted to 17.65 h*ID %/g and the “Exposure in Spleen” value was determined as 42.25 h*ID %/g. Further, the “Exposure in Tumor” value is 235 h*ID %/g.

The same data set, now with this note: predicted values (PSMA-D).
As to `COc1ccc(CCCC(=O)NC(CO)C(=O)N[C@@H](CCCCNC(=O)CN2CCN(CC(=O)O)CCN(CC(=O)O)CCN(CC(=O)O)CC2)C(=O)NCC2CCC(C(=O)N[C@@H](Cc3ccc4ccccc4c3)C(=O)NCCCC[C@H](NC(=O)N[C@@H](CCC(=O)O)C(=O)O)C(=O)O)CC2)cc1` (stereo partly drawn) [PSMA-D], the “Exposure in Bladder” value is listed as 200-800 h*ID %/g, the “Exposure in Bone” value is given as 10-80 h*ID %/g, the “Exposure in Heart” value is listed as 20-100 h*ID %/g and the “Exposure in Kidney” value is 50-500 h*ID %/g. For the same molecule, the “Exposure in Liver” value is recorded as 50-200 h*ID %/g, the “Exposure in Lung” value was 20-200 h*ID %/g, the “Exposure in Muscle” value is recorded as 20-100 h*ID %/g and the “Exposure in Spleen” value is recorded as 20-100 h*ID %/g. Moreover, the “Exposure in Tumor” value is reported as 200-1000 h*ID %/g.
